Data set [1] is described as follows: Cytotoxicity in HCVcc assay (CytoTox-1). In kind it is cell-based. As to conditions: human, Huh7.5 cells infected with cell culture-derived HCV (HCVcc), In vitro HCV cc assay, read-out: CC50 (concentration decreasing cell viability by 50%). As for the experimental part:
(§1) Huh7.5 cells are grown in Dulbecco's modified essential media (DMEM), 10% fetal bovine serum (FBS), 1% penicillin-streptomycin (pen-strep), 1% Non-essential amino acids (NEAA) in a 5% CO2 incubator at 37° C. Huh7.5 cells are seeded at 1×10^4 cells per well into 96-well plates according to Southern Research Institute standard format. Test articles are serially diluted with DMEM plus 5% FBS. The diluted compound in the amount of 50 μl is mixed with equal volume of cell culture-derived HCV (HCVcc), then applied to appropriate wells in the plate. Human interferon alpha-2b (rIFNα-2b) and/or Sofosbuvir are included as a positive control. After 72 hr incubation at 37° C., the cells are lysed for measurement of luciferase activity using Renilla Luciferase Assay System (Promega) according to manufacturer's instruction. The number of cells in each well is determined by CytoTox-1 reagent (Promega). Test articles are tested at 6 serial dilutions in triplicate to derive, if applicable, EC50 and EC90 (concentration inhibiting HCVcc infectivity by 50% and 90%, respectively), CC50 (concentration decreasing cell viability by 50%) and SI (selectivity index: CC50/EC50) values (Table 1).

A further data set has as its system HCV GT1B Replicon. Description: HCV replicon assay (antiviral, luciferase endpoint). The format is cell-based, hepatitis C virus. The source says:
(§2) Stable HCV replicons of different genotypes may be used for anti-HCV evaluation. We use the subgenomic HCV replicons of genotype 1a (H77 strain), 1b (Conl strain), and 2a (JFH-1 strain), which are Huh7 human hepatoma cell lines that contains an HCV replicon.
The HCV replicon antiviral evaluation assay examines the effects of compounds at six serial dilutions. Human interferon alpha-2b (rIFNα-2b) and/or Sofosbuvir are included in each run as a positive control compound.
(§3) Briefly, the replicon cells are plated at 5,000 cells/well into 96-well plates that are dedicated for the analysis of cell numbers (cytotoxicity) or antiviral activity. On the following day, samples are diluted with assay media and added to the appropriate wells. Cells are processed 72 hours later when the cells are still sub-confluent. For the luciferase endpoint assay, HCV replicon levels are assessed as replicon-derived L uc activity. The concentration of drug that reduces cell viability is assessed by the fluorometric CytoTox-1 cell proliferation assay (Promega), (expressed as cell numbers). For the qRT-PCR/TaqMan assay, total RNA is extracted from the replicon cells using RNeasy 96 kit (Qiagen) according to the manufacturer's protocol. Real-time RTPCR/TaqMan assays are performed to measure copy numbers of the replicon RNA and cellular ribosomal RNA. Where applicable EC50 (concentration inhibiting HCV replicon by 50%), EC90 (concentration inhibiting HCV replicon by 90%), CC50 (concentration decreasing cell viability by 50%), CC90 (concentration decreasing cell viability by 90%) and SI (selectivity indices: CC50/EC50 and CC90/EC90) values are derived.

Data set [2] can be described thus: Cytotoxicity in HCV replicon cells (CytoTox-1). In kind it is cell-based. The conditions noted are these: human, Huh7 hepatoma cells containing a subgenomic HCV replicon, In vitro HCV replicon assay, post infection, read-out: CC50 (concentration decreasing cell viability by 50%). As for the experimental part:
as §2
as §3, with “Where applicable EC50 (concentration inhibiting HCV replicon by 50%), EC90 (concentration inhibiting HCV replicon by 90%), CC50 (concentration decreasing cell viability by 50%), CC90 (concentration decreasing cell viability by 90%) and SI (selectivity indices: CC50/EC50 and CC90/EC90) values are derived.” left out

The subject of data set [3] is cell culture-derived HCV (HCVcc). Put plainly: microbe, parasite or virus in culture. In kind it is cell-based, hepatitis C virus. As for the experimental part:
as §1

Bounds are passed on as bounds.

The values that follow come from patent US9763901B2 (priority 2015, dated 2017).

Turning to `CCCCOc1ccc(CC(=O)NO)cc1` [Bufexamac], the values for the CC50 at 72 h in data set [1] and in data set [2] were 100 µM and greater than 100 µM, respectively. Moreover, the “anti-hepatitis C activity (in words)” value (in the data set with HCV GT1B Replicon (HCV replicon assay); in data set [3] (hepatitis C viral infectivity assay)) was “significant anti-hepatitis C activity” each time. The EC50 in the data set with HCV GT1B Replicon (Hepatitis C virus, GT1B, 72 h, read-out: EC50 (concentration inhibiting HCV replicon by 50%)) amounted to 11.3 µM; in data set [3] (Hepatitis C virus, Huh7.5, 72 h, read-out: EC50 (concentration inhibiting HCVcc infectivity by 50%)) it was 10.2 µM. Moreover, the results for the “Selectivity index (CC50/EC50)” value (with HCV GT1B Replicon (In vitro HCV replicon assay); in data set [3] (In vitro HCV cc assay)) were greater than 8.85 and 9.80, respectively.
